Patent US10295552B2, “Method for diagnosis of primary hyperaldosteronism” (ATTOQUANT D[…], priority 2013, dated 2019)

Tests used:
[1] = tested on: aldosterone-to-angiotensin II ratio (AA2R); assay: Aldosterone-to-angiotensin II ratio (AA2R) before and 4 h after a single dose of a RAS blocker; assay type: in vivo, human; conditions: 5 healthy volunteers, 4 h post administration vs predose, heparin plasma equilibrated 60 min at 37° C.
Description: (§1) FIG. 5: Comparison of the impact of RAS blocker administration on the ARR (upper panel) and the AA2R (lower panel). Plasma samples were collected from healthy volunteers before (Predose) and 4 h post administration of a single dose of an ACE inhibitor (left), renin inhibitor (middle) or angiotensin receptor blocker (ARB, right). Plasma aldosterone concentration, equilibrium angiotensin II concentration and active renin concentration were measured and the ARR and the AA2R was calculated for each sample. For calculation of the ARR, aldosterone concentrations in ng/L were divided by the plasma active renin concentration in ng/L. For calculation of the AA2R, aldosterone concentrations in pmol/L were divided by Ang II concentrations in pmol/L. Mean values of 5 healthy volunteers+/−SEM are shown in the graphs.
Single doses of three different anti-hypertensive drugs were administered to 5 healthy volunteers on 3 different treatment days separated by one week. […]
Equilibrium Ang II levels were determined by quantification of the steady-state angiotensin peptide levels in equilibrated heparin plasma samples. […] Following equilibration, plasma angiotensin peptide levels were stabilized by the addition of protease inhibitors and equilibrium peptide levels were subsequently quantified by mass spectrometry. […] Two different mass transitions were measured per analyte and standard and the concentrations were calculated by relating endogenous signals to internal standard signals under consideration of the corresponding response factors determined by calibration curves in human blank plasma.
StSable isotope-labeled aldosterone was added to the stabilized plasma samples at a concentration of 500 pg/ml for internal standardization. […] Two different mass transitions were measured per analyte and standard and the concentrations were calculated by relating endogenous signals to internal standard signals under consideration of the corresponding response factors determined by calibration curves in human blank plasma.

[2] = tested on: aldosterone-to-renin ratio (ARR); assay: Aldosterone-to-renin ratio (ARR) before and 4 h after a single dose of a RAS blocker; assay type: in vivo, human; conditions: 5 healthy volunteers, 4 h post administration vs predose
Description: as §1
Single doses of three different anti-hypertensive drugs were administered to 5 healthy volunteers on 3 different treatment days separated by one week. 4 h following administration of a single dose of 10 mg Enalapril (ACE-Inhibitor), 50 mg Losartan (ARB) or 150 mg Aliskiren (Renin-Inhibitor), heparin blood was collected by venous puncture and plasma was separated by centrifugation. Samples were frozen at −80° C. till analysis.
StSable isotope-labeled aldosterone was added to the stabilized plasma samples at a concentration of 500 pg/ml for internal standardization. Following C18-based solid-phase-extraction, samples were subjected to mass spectrometry analysis using a reversed-phase analytical column (Acquity UPLC® C18, Waters) operating in line with a XEVO TQ-S triple quadrupole mass spectrometer (Waters) in MRM mode. Two different mass transitions were measured per analyte and standard and the concentrations were calculated by relating endogenous signals to internal standard signals under consideration of the corresponding response factors determined by calibration curves in human blank plasma.

Structure (SMILES)	change in the AA2R (aldosterone pmol/L divided by equilibrium Ang II pmol/L) [1]	change in the ARR (aldosterone ng/L divided by plasma active renin concentration ng/L) [2]
COCCCOc1cc(C[C@@H](C[C@H](N)[C@@H](O)C[C@H](C(=O)NCC(C)(C)C(N)=O)C(C)C)C(C)C)ccc1OC [Aliskiren]	did not significantly affect	highly significant and profound decrease
CCOC(=O)[C@H](CCc1ccccc1)N[C@@H](C)C(=O)N1CCC[C@H]1C(=O)O [Enalapril]	did not significantly affect	highly significant and profound decrease
CCCCc1nc(Cl)c(CO)n1Cc1ccc(-c2ccccc2-c2nn[nH]n2)cc1 [Losartan]	significant decrease	highly significant and profound decrease
